From ChEMBL document CHEMBL1221241, “Discovery of tetrahydroisoquinoline (THIQ) derivatives as potent and orally bioavailable LFA-1/ICAM-1 antagonists” (Bioorg Med Chem Lett, 2010)

Columns and labels:
[1] = target: Intercellular adhesion molecule (ICAM-1), Integrin alpha-L/beta-2 (Homo sapiens, UniProt P05107+P05362+P20701); experiment: Inhibition of LFA1/ICAM1 interaction in human Hut-78 cells by cell migration assay; format: cell-based
[2] = Half life in Sprague-Dawley rat at 5 mg/kg, iv; format: ADME, organism-based; design: dose 5 mg/kg, route intravenous; conditions: in vivo
[3] = Oral bioavailability in Sprague-Dawley rat at 100 mg/kg; format: ADME, organism-based; conditions: in vivo
[4] = Cmax in C57BL/6 mouse at 100 mg/kg, po; format: ADME, organism-based; design: dose 100 mg/kg, route oral; conditions: in vivo
[5] = AUClast in C57BL/6 mouse at 100 mg/kg, po; format: ADME, organism-based; design: time 0 - last, dose 100 mg/kg, route oral; conditions: plasma
[6] = Tmax in C57BL/6 mouse at 100 mg/kg, po; format: ADME, organism-based; design: dose 100 mg/kg, route oral; conditions: in vivo
[7] = AUClast in C57BL/6 mouse at 20 mg/kg, po; format: ADME, organism-based; design: time 0 - last, dose 20 mg/kg, route oral; conditions: plasma
[8] = Oral bioavailability in C57BL/6 mouse at 20 mg/kg; format: ADME, organism-based; conditions: in vivo
[9] = Cmax in C57BL/6 mouse at 20 mg/kg, po; format: ADME, organism-based; design: dose 20 mg/kg, route oral; conditions: in vivo
[10] = Tmax in C57BL/6 mouse at 20 mg/kg, po; format: ADME, organism-based; design: dose 20 mg/kg, route oral; conditions: in vivo
[11] = Oral bioavailability in Sprague-Dawley rat at 20 mg/kg; format: ADME, organism-based; conditions: in vivo
[12] = AUClast in Sprague-Dawley rat at 20 mg/kg, po; format: ADME, organism-based; design: time 0 - last, dose 20 mg/kg, route oral; conditions: plasma
[13] = Tmax in Sprague-Dawley rat at 20 mg/kg, po; format: ADME, organism-based; design: dose 20 mg/kg, route oral; conditions: in vivo
[14] = Cmax in Sprague-Dawley rat at 20 mg/kg, po; format: ADME, organism-based; design: dose 20 mg/kg, route oral; conditions: in vivo
[15] = AUC in Sprague-Dawley rat at 5 mg/kg, iv; format: ADME, organism-based; design: dose 5 mg/kg, route intravenous; conditions: plasma
[16] = Clearance in Sprague-Dawley rat at 5 mg/kg, iv; format: ADME, organism-based; design: dose 5 mg/kg, route intravenous; conditions: in vivo
[17] = Apparent permeability of the compound from apical to basolateral side in MDCK cells; format: ADME, cell-based, Canis lupus familiaris; conditions: dog
[18] = Apparent permeability of the compound from basolateral to apical side in MDCK cells; format: ADME, cell-based, Canis lupus familiaris; conditions: dog
Mus musculus [19] = experiment: Reduction of neutrophil migration in po dosed thioglycollate-induced C57BL/6 mouse peritonitis model administered 15 mins before thioglycollate challenge measured after 4 hrs; format: functional
Mus musculus [20] = experiment: Reduction of neutrophil migration in iv dosed thioglycollate-induced C57BL/6 mouse peritonitis model administered 15 mins before thioglycollate challenge measured after 4 hrs; format: functional

Intercellular adhesion molecule (ICAM-1), Integrin alpha-L/beta-2, sequence (P20701 whole entry): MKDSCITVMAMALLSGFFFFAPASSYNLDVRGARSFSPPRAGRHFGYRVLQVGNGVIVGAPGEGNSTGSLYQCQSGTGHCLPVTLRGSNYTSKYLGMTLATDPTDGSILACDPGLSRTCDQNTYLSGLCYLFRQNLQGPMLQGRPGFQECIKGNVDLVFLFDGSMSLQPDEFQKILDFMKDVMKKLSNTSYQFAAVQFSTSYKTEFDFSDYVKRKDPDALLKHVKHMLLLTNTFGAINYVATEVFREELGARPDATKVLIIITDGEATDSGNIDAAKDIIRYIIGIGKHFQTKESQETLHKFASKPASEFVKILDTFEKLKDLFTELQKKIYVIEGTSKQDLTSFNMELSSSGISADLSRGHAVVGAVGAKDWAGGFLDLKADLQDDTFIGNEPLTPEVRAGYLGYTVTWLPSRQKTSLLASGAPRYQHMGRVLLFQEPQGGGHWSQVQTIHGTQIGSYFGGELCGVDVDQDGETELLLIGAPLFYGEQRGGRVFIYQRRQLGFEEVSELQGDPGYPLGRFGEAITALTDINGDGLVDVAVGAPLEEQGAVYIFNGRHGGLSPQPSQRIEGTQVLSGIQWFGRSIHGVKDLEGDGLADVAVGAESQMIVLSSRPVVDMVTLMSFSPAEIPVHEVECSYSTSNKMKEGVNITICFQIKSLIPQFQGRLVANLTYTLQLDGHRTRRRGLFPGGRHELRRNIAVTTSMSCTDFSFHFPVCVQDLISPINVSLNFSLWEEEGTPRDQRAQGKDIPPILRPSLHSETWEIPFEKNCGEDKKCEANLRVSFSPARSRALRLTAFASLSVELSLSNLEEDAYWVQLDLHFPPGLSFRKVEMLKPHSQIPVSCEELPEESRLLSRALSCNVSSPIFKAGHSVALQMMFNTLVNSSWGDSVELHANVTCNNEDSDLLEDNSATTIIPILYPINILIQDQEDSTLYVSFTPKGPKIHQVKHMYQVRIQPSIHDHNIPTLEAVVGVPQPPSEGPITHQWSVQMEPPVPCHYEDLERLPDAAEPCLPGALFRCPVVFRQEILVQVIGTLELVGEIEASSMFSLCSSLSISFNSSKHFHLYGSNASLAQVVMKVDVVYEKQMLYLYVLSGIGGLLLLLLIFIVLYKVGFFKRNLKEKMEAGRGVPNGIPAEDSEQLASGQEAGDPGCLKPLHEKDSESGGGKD
Intercellular adhesion molecule (ICAM-1), Integrin alpha-L/beta-2, sequence (P05362 whole entry): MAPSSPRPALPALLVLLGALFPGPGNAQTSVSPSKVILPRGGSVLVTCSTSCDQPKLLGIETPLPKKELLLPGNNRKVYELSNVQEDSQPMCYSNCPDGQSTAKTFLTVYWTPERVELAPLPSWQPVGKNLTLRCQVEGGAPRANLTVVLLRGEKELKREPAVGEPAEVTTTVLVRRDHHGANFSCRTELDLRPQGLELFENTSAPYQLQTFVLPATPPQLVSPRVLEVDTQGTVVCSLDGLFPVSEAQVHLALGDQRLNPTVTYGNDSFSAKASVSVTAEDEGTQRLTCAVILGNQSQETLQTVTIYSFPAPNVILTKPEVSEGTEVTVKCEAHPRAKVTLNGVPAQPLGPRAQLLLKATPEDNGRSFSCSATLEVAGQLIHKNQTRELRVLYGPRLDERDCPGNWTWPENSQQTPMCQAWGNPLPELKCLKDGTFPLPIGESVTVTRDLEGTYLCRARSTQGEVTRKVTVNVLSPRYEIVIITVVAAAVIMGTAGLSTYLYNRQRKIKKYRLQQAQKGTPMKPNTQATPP
Intercellular adhesion molecule (ICAM-1), Integrin alpha-L/beta-2, sequence (P05107 whole entry): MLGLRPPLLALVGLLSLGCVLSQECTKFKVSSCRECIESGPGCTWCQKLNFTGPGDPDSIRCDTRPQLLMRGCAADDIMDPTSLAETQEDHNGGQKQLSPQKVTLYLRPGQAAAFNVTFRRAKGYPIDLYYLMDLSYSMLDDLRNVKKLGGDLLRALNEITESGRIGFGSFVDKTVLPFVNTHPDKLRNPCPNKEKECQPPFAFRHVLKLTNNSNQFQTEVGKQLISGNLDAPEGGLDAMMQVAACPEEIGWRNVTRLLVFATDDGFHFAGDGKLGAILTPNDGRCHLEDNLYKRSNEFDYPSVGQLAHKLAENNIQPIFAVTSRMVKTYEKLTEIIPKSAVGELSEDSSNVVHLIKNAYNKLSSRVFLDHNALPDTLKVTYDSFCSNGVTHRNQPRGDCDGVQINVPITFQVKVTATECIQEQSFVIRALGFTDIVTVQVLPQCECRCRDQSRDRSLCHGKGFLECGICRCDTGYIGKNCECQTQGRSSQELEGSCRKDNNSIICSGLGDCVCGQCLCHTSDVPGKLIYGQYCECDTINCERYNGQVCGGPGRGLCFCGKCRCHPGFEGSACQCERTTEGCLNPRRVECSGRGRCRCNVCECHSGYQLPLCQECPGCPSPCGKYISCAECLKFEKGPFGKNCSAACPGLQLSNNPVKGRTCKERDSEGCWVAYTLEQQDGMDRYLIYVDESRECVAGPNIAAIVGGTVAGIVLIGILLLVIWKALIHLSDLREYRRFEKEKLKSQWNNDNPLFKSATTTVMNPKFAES

Structure (SMILES)	IC50 [1] [nM]	half-life [2] [h]	AUC [15] [ng·h/mL]	clearance [16] [mL/min/kg]	other results
CC(=O)NC[C@H](NC(=O)c1c(Cl)cc2c(c1Cl)CCN(C(=O)c1ccc(Cl)cc1)C2)C(=O)O	620				
Cc1ccc(C(=O)N2CCc3c(cc(Cl)c(C(=O)N[C@@H](CNC(=O)c4cccs4)C(=O)O)c3Cl)C2)cc1	10				
O=C(NC[C@H](NC(=O)c1c(Cl)cc2c(c1Cl)CCN(C(=O)c1ccc(Cl)cc1)C2)C(=O)O)c1ccco1	51				
O=C(N[C@@H](Cc1c[nH]c2ccccc12)C(=O)O)c1c(Cl)cc2c(c1Cl)CCN(C(=O)c1ccc(Cl)cc1)C2	810				
O=C(N[C@@H](CNC(=O)C1CCCCC1)C(=O)O)c1c(Cl)cc2c(c1Cl)CCN(C(=O)c1ccc(Cl)cc1)C2	540				
O=C(NC[C@H](NC(=O)c1c(Cl)cc2c(c1Cl)CCN(C(=O)/C=C/c1ccco1)C2)C(=O)O)c1cccs1	25				
CCOC(=O)[C@H](CNC(=O)c1cccs1)NC(=O)c1c(Cl)cc2c(c1Cl)CCN(C(=O)c1ccc3ccoc3c1)C2		2.8	16800	5	bioavailability [3]: 31%; Cmax [4]: 8460 ng/mL; AUC(0-t) [5]: 31900 ng·h/mL; Tmax [6]: 1 h; AUC(0-t) [7]: 5540 ng·h/mL; bioavailability [8]: 27%; Cmax [9]: 2120 ng/mL; Tmax [10]: 0.8 h; bioavailability [11]: 18%; AUC(0-t) [12]: 13900 ng·h/mL; Tmax [13]: 0.8 h; Cmax [14]: 3400 ng/mL; Papp A→B [17]: 8.5 ×10⁻⁶ cm/s; Papp B→A [18]: 10 ×10⁻⁶ cm/s; Activity (Mus musculus [19]): Dose-dependent effect; ED50 (Mus musculus [19]; C57BL/6, po): 6.4 mg/kg
O=C(NC[C@H](NC(=O)c1c(Cl)cc2c(c1Cl)CCN(C(=O)c1ccc3c(c1)OCC3)C2)C(=O)O)c1cccs1	13	1.1	4870	19	
O=C(NC[C@H](NC(=O)c1c(Cl)cc2c(c1Cl)CCN(C(=O)c1ccc3ccoc3c1)C2)C(=O)O)c1cccs1	9	3	5500	3.2	Papp A→B [17]: 0.34 ×10⁻⁶ cm/s; Papp B→A [18]: 0.3 ×10⁻⁶ cm/s; Activity (Mus musculus [20]): Dose-dependent effect; ED50 (Mus musculus [20]; C57BL/6, iv): 0.038 mg/kg
O=C(NC[C@H](NC(=O)c1c(Cl)cc2c(c1Cl)CCN(C(=O)c1ccccc1)C2)C(=O)O)c1cccs1	79				
Cc1cccc(C(=O)N2CCc3c(cc(Cl)c(C(=O)N[C@@H](CNC(=O)c4cccs4)C(=O)O)c3Cl)C2)c1	90				
O=C(NC[C@H](NC(=O)c1c(Cl)cc2c(c1Cl)CCN(C(=O)c1cccc(Cl)c1)C2)C(=O)O)c1cccs1	66	1.1	120	> 60	
NC[C@H](NC(=O)c1c(Cl)cc2c(c1Cl)CCN(C(=O)c1ccc(Cl)cc1)C2)C(=O)O	> 1000				
O=C(N[C@@H](Cc1cccc(O)c1)C(=O)O)c1c(Cl)cc2c(c1Cl)CCN(C(=O)c1ccc(Cl)cc1)C2	> 1000				
O=C(NC[C@H](NC(=O)c1c(Cl)cc2c(c1Cl)CCN(C(=O)c1ccc(Cl)cc1)C2)C(=O)O)c1ccccc1	29	0.7	487	> 60	
O=C(NC[C@H](NC(=O)c1c(Cl)cc2c(c1Cl)CCN(C(=O)C1CCCCC1)C2)C(=O)O)c1cccs1	> 1000				
O=C(NC[C@H](NC(=O)c1c(Cl)cc2c(c1Cl)CCN(C(=O)c1cc3ccccc3o1)C2)C(=O)O)c1cccs1	5	1.5	1260	> 60	
Cc1ccccc1C(=O)N1CCc2c(cc(Cl)c(C(=O)N[C@@H](CNC(=O)c3cccs3)C(=O)O)c2Cl)C1	460				
CC(=O)N1CCc2c(cc(Cl)c(C(=O)N[C@@H](CNC(=O)c3cccs3)C(=O)O)c2Cl)C1	> 1000				
O=C(NC[C@H](NC(=O)c1c(Cl)cc2c(c1Cl)CCN(C(=O)c1ccc(Cl)cc1)C2)C(=O)O)c1cccs1	22	1.4	580	31	
